Measured values: publication PMC10999543, “Identification of kinase modulators as host-directed therapeutics against intracellular methicillin-resistant Staphylococcus aureus” (Frontiers in Cellular and Infection Microbiology, 2024)
Read-outs that look alike come from different tables or passages of the source.

Columns and labels:
intracellular MRSA = assay type: cell-based, Staphylococcus aureus; conditions: for %GFP+ rep 1 / z-scoreMRSA+ rep 1: replicate 1; for %GFP+ rep 2 / z-scoreMRSA+ rep 2: replicate 2; for %GFP+ rep 3 / z-scoreMRSA+ rep 3: replicate 3; for z-scoreMRSA+ mean: mean of 3 replicates; for z-score GFP+: flow cytometry screen, 10 µM, HeLa cells
In short: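 HeLa cells were infected with GFP-expressing MRSA (mean MOI 6.8) for 1 h, treated with 30 µg/ml gentamicin for 15 min, then incubated overnight at 37°C with kinase inhibitors and 5 µg/ml gentamicin. Flow cytometry gave % GFP-positive cells, with cell count as viability. Hits were z-score ≤ -2 (infection) and ≥ -3 (count) versus DMSO.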

HeLa cells = test: Compound screen by flow cytometry: HeLa cell count as surrogate readout of cell viability (z-scoreHeLa); assay type: cell-based, human; conditions: for cell count rep 1 / z-scoreHeLa rep 1: replicate 1; for cell count rep 2 / z-scoreHeLa rep 2: replicate 2; for cell count rep 3 / z-scoreHeLa rep 3: replicate 3; for z-scoreHeLa mean: mean of 3 replicates
In short: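 The viability surrogate was the count of fixed HeLa cells by flow cytometry, converted to z-scores against DMSO controls with values deviating two-fold excluded. Before counting, cells had been infected with MRSA for 1 h and cleared of extracellular bacteria with gentamicin. They were then exposed overnight to kinase inhibitors in triplicate.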

[1] = tested on: intracellular MRSA in HeLa cells; test: Gentamicin protection assay with CFU count in MRSA-infected HeLa cells; assay type: cell-based, Staphylococcus aureus; conditions: for CFU (% of DMSO) at 10 µM: MRSA-infected HeLa cells
Experimental: The cells were resuspended in cell culture medium without antibiotics, seeded with 10,000 cells/well into Costar flat-bottom 96-well plates (Corning, Amsterdam, the Netherlands), and were incubated overnight at 37°C/5% CO2. The next day, the bacteria were centrifuged at ≥1800 g for 15 min and resuspended in cold PBS + 5 mM ethylenediaminetetraacetic acid (EDTA). The number of CFUs present in the bacterial suspension was estimated from the optical density at 600 nm (OD600) by assuming 8x10^8 CFUs to be present in a bacterial suspension with OD600 = 1, based on prior titrations. The bacterial suspension was diluted in cell culture medium without antibiotics and added to the cells. Accuracy of the multiplicity of infection (MOI) was validated by plating serial dilutions of the MRSA inoculums on Difco TS agar plates (BD Biosciences). The calculated mean MOI throughout all experiments was 6.8 ± 4.6 (mean ± SD). Infected cells were centrifuged for 3 min at 150 g and incubated for 1 hour at 37°C/5% CO2. Next, the cells were incubated with fresh cell culture medium supplemented with 30 µg/ml gentamicin sulphate (Lonza BioWhittaker, Basel, Switzerland) for 15 min at 37°C/5% CO2 to kill residual extracellular bacteria. Infected cells were incubated overnight at 37°C/5% CO2 in cell culture medium in the presence of kinase inhibitors and 5 µg/ml gentamicin sulphate-containing medium to prevent the growth of extracellular bacteria. The solvent of the compounds, DMSO, was used at equal % v/v as a negative control. For the screen, each compound was tested in triplicate, on separate cell culture plates, resulting in triplicate values for each kinase inhibitor.
Infected cells were lysed in sterile water + 0.05% UltraPure SDS solution (Invitrogen, ThermoFisher Scientific) to release intracellular bacteria. Bacterial suspensions and lysates of cells infected with MRSA were 5-fold serially diluted and 10-μl drops were plated on square TS agar plates. The plates were left to dry and incubated overnight at 37°C/5% CO2.

EGFR = tested on: EGFR; parameters: method as in Elkins et al., 2016; conditions: PKIS1, Caliper assay, ref Elkins et al., 2016; cited from earlier work
HER2 = tested on: HER2; parameters: method as in Elkins et al., 2016; conditions: PKIS1, Caliper assay, ref Elkins et al., 2016; cited from earlier work
HER4 = tested on: HER4; parameters: method as in Elkins et al., 2016; conditions: PKIS1, Caliper assay, ref Elkins et al., 2016; cited from earlier work
[2] = PKIS compound screen raw data, MRSA-infected HeLa cells
[3] = PKIS compound screen, MRSA-infected HeLa cells
[4] = PKIS compound screen, Yes/No call
[5] = PKIS compound screen, Yes/No call (effect without cell death)
[6] = PKIS compound screen, Yes/No call on z-scoreMRSA+
[7] = PKIS compounds raw data, MRSA-infected HeLa cells
[8] = PKIS compound screen raw data, HeLa cell count
[9] = PKIS compound screen, HeLa cell count
[10] = PKIS compound screen, Yes/No call on z-scoreHeLa
[11] = PKIS compounds raw data, HeLa cell count
[12] = compound screen, MRSA-infected HeLa cells
[13] = compound screen, HeLa cell count

CS(=O)(=O)CCNCc1ccc(-c2ccc3ncnc(Nc4ccc(OCc5ccccc5)c(Cl)c4)c3c2)o1 [GW574783B]
%GFP+ rep 1 (intracellular MRSA; [2]): 11.2% | %GFP+ rep 2 (intracellular MRSA; [2]): 11.2% | %GFP+ rep 3 (intracellular MRSA; [2]): 14.4% | z-scoreMRSA+ mean (intracellular MRSA; [3]): -1.99 | z-scoreMRSA+ rep 1 (intracellular MRSA; [3]): -2.11 | z-scoreMRSA+ rep 2 (intracellular MRSA; [3]): -2.20 | z-scoreMRSA+ rep 3 (intracellular MRSA; [3]): -1.64 | effect (intracellular MRSA; [4]): Yes | hit (intracellular MRSA; [5]): No and Yes | effect (intracellular MRSA; [6]): No | z-scoreMRSA+ mean (intracellular MRSA; PKIS compound screen): -2.62 | z-scoreMRSA+ rep 1 (intracellular MRSA; PKIS compound screen): -2.66 | z-scoreMRSA+ rep 2 (intracellular MRSA; PKIS compound screen): -2.54 | z-scoreMRSA+ rep 3 (intracellular MRSA; PKIS compound screen): -2.65 | %GFP+ rep 1 (intracellular MRSA; [7]): 13.4% | %GFP+ rep 2 (intracellular MRSA; [7]): 12.8% | %GFP+ rep 3 (intracellular MRSA; [7]): 13.0% | z-score GFP+ (intracellular MRSA): -2.30 | cell count rep 1 (HeLa cells; [8]): 17891 | cell count rep 2 (HeLa cells; [8]): 35533 | cell count rep 3 (HeLa cells; [8]): 50424 | z-scoreHeLa mean (HeLa cells; [9]): 0.46 | z-scoreHeLa rep 1 (HeLa cells; [9]): -0.34 | z-scoreHeLa rep 2 (HeLa cells; [9]): 0.14 | z-scoreHeLa rep 3 (HeLa cells; [9]): 1.58 | cell death (HeLa cells; [4]): No | cell death (HeLa cells; [10]): No | z-scoreHeLa mean (HeLa cells; PKIS compound screen): 1.91 | z-scoreHeLa rep 1 (HeLa cells; PKIS compound screen): 1.69 | z-scoreHeLa rep 2 (HeLa cells; PKIS compound screen): 1.91 | z-scoreHeLa rep 3 (HeLa cells; PKIS compound screen): 2.13 | cell count rep 1 (HeLa cells; [11]): 8853 | cell count rep 2 (HeLa cells; [11]): 8889 | cell count rep 3 (HeLa cells; [11]): 8965 | CFU (% of DMSO) at 10 µM [1]: 53.4 % of DMSO | % inhibition at 1 µM EGFR (EGFR): 91% | % inhibition at 1 µM HER2 (HER2): 75% | % inhibition at 1 µM HER4 (HER4): 89%

[O-][S+]1CCN(Cc2ccc(-c3ccc4ncnc(Nc5ccc(OCc6cccc(F)c6)c(Cl)c5)c4c3)o2)CC1 [GW576609A]
%GFP+ rep 1 (intracellular MRSA; [2]): 13.3% | %GFP+ rep 2 (intracellular MRSA; [2]): 14.3% | %GFP+ rep 3 (intracellular MRSA; [2]): 14.3% | z-scoreMRSA+ mean (intracellular MRSA; [3]): -1.46 | z-scoreMRSA+ rep 1 (intracellular MRSA; [3]): -1.45 | z-scoreMRSA+ rep 2 (intracellular MRSA; [3]): -1.27 | z-scoreMRSA+ rep 3 (intracellular MRSA; [3]): -1.67 | hit (intracellular MRSA; [5]): No | effect (intracellular MRSA; [6]): No | cell count rep 1 (HeLa cells; [8]): 27921 | cell count rep 2 (HeLa cells; [8]): 36007 | cell count rep 3 (HeLa cells; [8]): 40876 | z-scoreHeLa mean (HeLa cells; [9]): 0.49 | z-scoreHeLa rep 1 (HeLa cells; [9]): 1.18 | z-scoreHeLa rep 2 (HeLa cells; [9]): 0.23 | z-scoreHeLa rep 3 (HeLa cells; [9]): 0.0554 | cell death (HeLa cells; [10]): No | % inhibition at 1 µM EGFR (EGFR): 84% | % inhibition at 1 µM HER2 (HER2): 80% | % inhibition at 1 µM HER4 (HER4): 91%

[O-][S+]1CCN(Cc2ccc(-c3ccc4ncnc(Nc5ccc(OCc6ccccc6)c(F)c5)c4c3)o2)CC1 [GW576924A]
effect (intracellular MRSA; [4]): Yes | hit (intracellular MRSA; [5]): Yes | z-scoreMRSA+ mean (intracellular MRSA; PKIS compound screen): -2.35 | z-scoreMRSA+ rep 1 (intracellular MRSA; PKIS compound screen): -1.94 | z-scoreMRSA+ rep 2 (intracellular MRSA; PKIS compound screen): -2.43 | z-scoreMRSA+ rep 3 (intracellular MRSA; PKIS compound screen): -2.70 | %GFP+ rep 1 (intracellular MRSA; [7]): 7.1% | %GFP+ rep 2 (intracellular MRSA; [7]): 6.2% | %GFP+ rep 3 (intracellular MRSA; [7]): 6.8% | z-score GFP+ (intracellular MRSA): -2.36 | cell death (HeLa cells; [4]): No | z-scoreHeLa mean (HeLa cells; PKIS compound screen): -0.58 | z-scoreHeLa rep 1 (HeLa cells; PKIS compound screen): -1.18 | z-scoreHeLa rep 2 (HeLa cells; PKIS compound screen): -0.60 | z-scoreHeLa rep 3 (HeLa cells; PKIS compound screen): 0.0442 | cell count rep 1 (HeLa cells; [11]): 3467 | cell count rep 2 (HeLa cells; [11]): 3479 | cell count rep 3 (HeLa cells; [11]): 7054 | CFU (% of DMSO) at 10 µM [1]: 137.9 % of DMSO | % inhibition at 1 µM EGFR (EGFR): 82% | % inhibition at 1 µM HER2 (HER2): 91% | % inhibition at 1 µM HER4 (HER4): 75%

[O-][S+]1CCN(Cc2ccc(-c3ccc4ncnc(Nc5ccc(OCc6ccccc6)c(Cl)c5)c4c3)o2)CC1 [GW583373A]
effect (intracellular MRSA; [4]): No | hit (intracellular MRSA; [5]): No | z-scoreMRSA+ mean (intracellular MRSA; PKIS compound screen): -1.31 | z-scoreMRSA+ rep 1 (intracellular MRSA; PKIS compound screen): -1.43 | z-scoreMRSA+ rep 2 (intracellular MRSA; PKIS compound screen): -1.26 | z-scoreMRSA+ rep 3 (intracellular MRSA; PKIS compound screen): -1.26 | %GFP+ rep 1 (intracellular MRSA; [7]): 19.7% | %GFP+ rep 2 (intracellular MRSA; [7]): 19.5% | %GFP+ rep 3 (intracellular MRSA; [7]): 20.5% | cell death (HeLa cells; [4]): No | z-scoreHeLa mean (HeLa cells; PKIS compound screen): 1.46 | z-scoreHeLa rep 1 (HeLa cells; PKIS compound screen): 1.65 | z-scoreHeLa rep 2 (HeLa cells; PKIS compound screen): 1.30 | z-scoreHeLa rep 3 (HeLa cells; PKIS compound screen): 1.44 | cell count rep 1 (HeLa cells; [11]): 8794 | cell count rep 2 (HeLa cells; [11]): 7971 | cell count rep 3 (HeLa cells; [11]): 7863 | % inhibition at 1 µM HER2 (HER2): 73% | % inhibition at 1 µM HER4 (HER4): 84%

O=S(=O)(CCOCc1ccc(-c2ccc3ncnc(Nc4ccc(OCc5cccc(F)c5)c(Cl)c4)c3c2)o1)c1ccccc1 [GW615311X]
%GFP+ rep 1 (intracellular MRSA; [7]): 14.3% | %GFP+ rep 2 (intracellular MRSA; [7]): 12.7% | %GFP+ rep 3 (intracellular MRSA; [7]): 13.9% | effect (intracellular MRSA; Yes/No call from z-scoreMRSA+): No | hit (intracellular MRSA; Yes/No: effect without cell death): No | z-scoreMRSA+ mean (intracellular MRSA; [12]): -0.16 | z-scoreMRSA+ rep 1 (intracellular MRSA; [12]): 0.36 | z-scoreMRSA+ rep 2 (intracellular MRSA; [12]): -0.27 | z-scoreMRSA+ rep 3 (intracellular MRSA; [12]): -0.59 | cell count rep 1 (HeLa cells; [11]): 4217 | cell count rep 2 (HeLa cells; [11]): 4665 | cell count rep 3 (HeLa cells; [11]): 7934 | cell death (HeLa cells; Yes/No call from z-scoreHeLa): No | z-scoreHeLa mean (HeLa cells; [13]): 0.09 | z-scoreHeLa rep 1 (HeLa cells; [13]): -0.51 | z-scoreHeLa rep 2 (HeLa cells; [13]): 0.30 | z-scoreHeLa rep 3 (HeLa cells; [13]): 0.47 | % inhibition at 1 µM EGFR (EGFR): 85% | % inhibition at 1 µM HER2 (HER2): 70% | % inhibition at 1 µM HER4 (HER4): 73%

CNC(=O)CN1CCC(Oc2cc3c(Nc4cccc(Cl)c4F)ncnc3cc2OC)CC1 [sapitinib, reference compound]
effect on bacterial burden of MRSA-infected HeLa cells ([1]; tested at different concentrations, Figure 4K): unable to reduce the bacterial burden
